Data from the NIST ThermoML archive (doi:10.1021/je800633a).

Columns and labels:
[1] = xn = mol fraction of the nth substance listed; conditions: 81.5 kPa, Liquid; for viscosity: Capillary tube (Ostwald / Ubbelohde) method
[2] = refractive index (Na D-line) (dimensionless); xn = mol fraction of the nth substance listed; conditions: 303.15 K, 81.5 kPa, Liquid
[3] = refractive index (Na D-line) (dimensionless); conditions: 298.15 K; 101.33 kPa; Liquid; Standard Abbe refractometry
[4] = 81.5 kPa, Liquid; for viscosity: Capillary tube (Ostwald / Ubbelohde) method

CCO [ethanol] + CC(O)CO
[1], x1 = 1
Conditions | mass density [kg/m3]
298.15 K | 785.18
303.15 K | 780.87
308.15 K | 776.52

CC(O)CO (stereo not drawn) [1,2-propanediol] + CCO
[1]
Conditions | mass density, 298.15 K [kg/m3] | mass density, 303.15 K [kg/m3] | mass density, 308.15 K [kg/m3] | viscosity, 303.15 K [mPa·s]
x2 = 0.0492 | 1023.64 | 1019.91 | 1016.16 | –
x2 = 0.0738 | – | – | – | 25.01
x2 = 0.122 | 1009.9 | 1006.14 | 1002.31 | –
x2 = 0.1285 | – | – | – | 20.47
x2 = 0.2072 | 993.05 | 989.22 | 985.36 | –
x2 = 0.2099 | – | – | – | 15.2
x2 = 0.2706 | 979.89 | 976.03 | 972.12 | –
x2 = 0.2725 | – | – | – | 12.14
x2 = 0.3633 | 959.86 | 955.92 | 951.97 | –
x2 = 0.3701 | – | – | – | 8.55
x2 = 0.4389 | – | – | – | 6.68
x2 = 0.4478 | 940.7 | 936.73 | 932.7 | –
x2 = 0.5193 | – | – | – | 5.03
x2 = 0.5261 | 921.85 | 917.81 | 913.76 | –
x2 = 0.5871 | – | – | – | 3.98
x2 = 0.6103 | 900.63 | 896.55 | 892.41 | –
x2 = 0.677 | 882.99 | 878.84 | 874.69 | –
x2 = 0.678 | – | – | – | 2.9
x2 = 0.7554 | – | – | – | 2.23
x2 = 0.7613 | 859.54 | 855.37 | 851.13 | –
x2 = 0.8185 | – | – | – | 1.8
x2 = 0.8332 | 838.49 | 834.25 | 829.99 | –
x2 = 0.9171 | – | – | – | 1.29
x2 = 0.9232 | 810.57 | 806.3 | 801.98 | –

[2]
Conditions | refractive index
x2 = 0.0738 | 1.426
x2 = 0.1285 | 1.4233
x2 = 0.2099 | 1.4187
x2 = 0.2725 | 1.4153
x2 = 0.3701 | 1.4093
x2 = 0.4389 | 1.4052
x2 = 0.5193 | 1.3998
x2 = 0.5871 | 1.3946
x2 = 0.678 | 1.3876
x2 = 0.7554 | 1.3817
x2 = 0.8185 | 1.3765
x2 = 0.9171 | 1.3672

CCO [ethanol]
Conditions | refractive index
[3] | 1.3595

[4]
Conditions | mass density [kg/m3] | viscosity [mPa·s]
298.15 K | 785.18 | –
303.15 K | 780.87 | 0.994
308.15 K | 776.52 | –

CC(O)CO (stereo not drawn) [1,2-propanediol]
Conditions | refractive index
[3] | 1.4323

[4]
Conditions | mass density [kg/m3] | viscosity [mPa·s]
298.15 K | 1032.61 | –
303.15 K | 1028.9 | 33.88
308.15 K | 1025.16 | –

CO [methanol] + CCO
[1], 303.15 K
Conditions | viscosity [mPa·s]
x1 = 0.0417 | 0.968
x1 = 0.1476 | 0.906
x1 = 0.2214 | 0.865
x1 = 0.2952 | 0.828
x1 = 0.3644 | 0.793
x1 = 0.4488 | 0.753
x1 = 0.529 | 0.717
x1 = 0.5995 | 0.685
x1 = 0.6859 | 0.648
x1 = 0.7442 | 0.624
x1 = 0.832 | 0.588
x1 = 0.9166 | 0.556

[2]
Conditions | refractive index
x1 = 0.0417 | 1.3567
x1 = 0.1476 | 1.3541
x1 = 0.2214 | 1.3522
x1 = 0.2952 | 1.3502
x1 = 0.3644 | 1.3485
x1 = 0.4488 | 1.3462
x1 = 0.529 | 1.3437
x1 = 0.5995 | 1.3415
x1 = 0.6859 | 1.3385
x1 = 0.7442 | 1.3363
x1 = 0.832 | 1.3328
x1 = 0.9166 | 1.3286

CO [methanol]
Conditions | refractive index
[3] | 1.327

[4]
Conditions | mass density [kg/m3] | viscosity [mPa·s]
298.15 K | 786.57 | –
303.15 K | 781.85 | 0.525
308.15 K | 777.1 | –

CO [methanol] + CC(O)CO
[1], x1 = 1
Conditions | mass density [kg/m3]
298.15 K | 786.57
303.15 K | 781.85
308.15 K | 777.1

CC(O)CO (stereo not drawn) [1,2-propanediol] + CO
[1]
Conditions | mass density, 298.15 K [kg/m3] | mass density, 303.15 K [kg/m3] | mass density, 308.15 K [kg/m3] | viscosity, 303.15 K [mPa·s]
x2 = 0 | 1032.61 | 1028.9 | 1025.16 | –
x2 = 0.0533 | 1026.26 | 1022.52 | 1018.75 | –
x2 = 0.0688 | – | – | – | 25.51
x2 = 0.1319 | 1016.21 | 1012.45 | 1008.64 | –
x2 = 0.1545 | – | – | – | 18.49
x2 = 0.2246 | 1003.13 | 999.31 | 995.47 | –
x2 = 0.2606 | – | – | – | 12.31
x2 = 0.282 | 994.24 | 990.39 | 986.48 | –
x2 = 0.3086 | – | – | – | 10.21
x2 = 0.3666 | – | – | – | 8.11
x2 = 0.3841 | 976.76 | 972.84 | 968.91 | –
x2 = 0.4494 | – | – | – | 5.81
x2 = 0.4496 | 964.21 | 960.26 | 956.25 | –
x2 = 0.51 | – | – | – | 4.54
x2 = 0.53 | 947.16 | 943.12 | 939.07 | –
x2 = 0.6083 | 928.51 | 924.41 | 920.25 | –
x2 = 0.6098 | – | – | – | 2.99
x2 = 0.6811 | – | – | – | 2.21
x2 = 0.7006 | 903.39 | 899.17 | 894.96 | –
x2 = 0.7601 | 884.96 | 880.67 | 876.35 | –
x2 = 0.7687 | – | – | – | 1.51
x2 = 0.8363 | – | – | – | 1.11
x2 = 0.8454 | 855.03 | 850.61 | 846.16 | –
x2 = 0.9133 | 827.35 | 823.02 | 818.45 | –
x2 = 0.9225 | – | – | – | 0.75

[2]
Conditions | refractive index
x2 = 0.0688 | 1.4262
x2 = 0.1545 | 1.422
x2 = 0.2606 | 1.4155
x2 = 0.3086 | 1.4129
x2 = 0.3666 | 1.4096
x2 = 0.4494 | 1.4029
x2 = 0.51 | 1.3983
x2 = 0.6098 | 1.3883
x2 = 0.6811 | 1.3783
x2 = 0.7687 | 1.3665
x2 = 0.8363 | 1.3571
x2 = 0.9225 | 1.3404
